Values of other authors, collected in patent publication US6495173B1, “Compositions and methods for reducing or controlling blood cholesterol, lipoproteins, triglycerides and atherosclerosis” (priority 2000, dated 2002).

Tests used:
[1] = 75 mg to 600 mg/day, eight years
[2] = 100 mg per day for 30 days
[3] = mean dose of 2,250 mg/day
[4] = large doses (3 to 6 g/day)
[5] = supplement users versus non-users
[6] = in vivo
[7] = human, in vivo
[8] = 500 mcg BID, after 2 and 4 months
[9] = rats

Q: Which “decreased dependency on drugs” value [1] does the source give for `COC1=C(OC)C(=O)C(C/C=C(\C)CC/C=C(\C)CC/C=C(\C)CC/C=C(\C)CC/C=C(\C)CC/C=C(\C)CC/C=C(\C)CC/C=C(\C)CC/C=C(\C)CCC=C(C)C)=C(C)C1=O` [Coenzyme Q10] here?
A: 43%

Q: What about the “improvements in myocardial function” value [1] of the same molecule?
A: 58%

Q: And the “hydroperoxide levels in the LDL3 subfraction” value [2]?
A: significant decrease

Q: What about the “Coenzyme Q10 levels in all three LDL subfractions” value ([2]; P<0.01) of the same molecule?
A: increased

Q: With chromium picolinate as the molecule, how does the triglyceride level (supplementation for 2 months (vs. 161)) read?
A: 133 mg/dL

Q: What about the “reduction in triglyceride levels” value (supplementation for 2 months, P<0.05) of the same molecule?
A: 17.4%

Q: With `O=C(O)c1cccnc1` [Nicotinic acid] as the molecule, how does the “increase in levels of HDL-cholesterol” value [3] read?
A: 35%

Q: And the “increase in HDL” value [4]?
A: ≤ 30 mg/dL

Q: Which absolute risk reduction [5] does the source give for vitamin E here?
A: 3.4 women per 10,000 woman-years

Q: And the “reduction in relative risk for non-fatal myocardial infarction and death from cardiovascular disease” value ([5]; average 8 years follow-up, adjusted)?
A: 31%

Q: With `CC[C@H](C)C(=O)O[C@H]1C[C@@H](C)C=C2C=C[C@H](C)[C@H](CC[C@@H]3C[C@@H](O)CC(=O)O3)[C@H]21` [Lovastatin, lovastatin] as the molecule, how does the “increased liver transaminase levels, share of subjects” value [6] read?
A: 2%

Q: And the “myopathy with a creatine kinase greater than 10 times normal, share of subjects” value [6]?
A: 0.5%

Q: And the “required discontinuation, share of those treated” value [6]?
A: 9%

Q: And the “decrease in levels of LDL” value [7]?
A: 32.4%

Q: What about the “decrease in levels of VLDL” value [7] of the same molecule?
A: 53%

Q: Which “blood sugar and cholesterol versus placebo group” value [8] does the source give for `[Cr]` [chromium] here?
A: lower

Q: Which “blood cholesterol and triglycerides” value [9] does the source give for `CC(C)(C)c1cc(O)ccc1O` [TBHQ, tert-butylhydroquinone] here?
A: reduce
